Where a name gives a salt, the structure may show the parent alone.
system: ATGL-KO iPSCs; experiment: High throughput iPSC chemical screening, Oil Red O (ORO) lipid accumulation; type: cell-based, mouse; conditions: glycolytic switch compounds; on Z-score: test concentration or dose not given here

Point of comparison: Merbromin, “Rank in normalized ORO score from screen” value 743. Against it:
- CN(C)CCCN1c2ccccc2Sc2ccc(C(F)(F)F)cc21 [Triflupromazine hydrochloride] — lower, 644
- Fc1ccc(C(OCCN2CCN(CCCc3ccccc3)CC2)c2ccc(F)cc2)cc1 [GBR 12909 dihydrochloride] — lower, 208

same assay, conditions: normalized ORO level vs DMSO-treated cells; compound present during 7 days differentiation, 96-well; negative = decrease in lipid accumulation

Point of comparison: `N=C(N)N/N=C/c1c(Cl)cccc1Cl` [Guanabenz acetate], Z-score −0.3551. Against it:
- CC1(C)O[C@@H]2C[C@H]3[C@@H]4C[C@H](F)C5=CC(=O)CC[C@]5(C)[C@H]4[C@@H](O)C[C@]3(C)[C@]2(C(=O)CO)O1 [Flurandrenolide] — higher, −0.0402
- C=C1[C@@H]2CC[C@H]3[C@]4(C)C[C@H](O[C@@H]5O[C@H](CO)[C@@H](OS(=O)(=O)O)[C@H](OS(=O)(=O)O)[C@H]5OC(=O)CC(C)C)C[C@@H](C(=O)O)[C@H]4CC[C@]3(C2)[C@@H]1O [Atractyloside potassium salt] — lower, −0.3937
- CN1CCN(CCCN2c3ccccc3Sc3ccc(Cl)cc32)CC1 [Prochlorperazine dimaleate] — higher, 1.82
- N[C@@H](C(=O)N[C@@H]1C(=O)N2C(C(=O)O)=C(Cl)CS[C@H]12)c1ccccc1 [Cefaclor] — lower, −0.5619
- Cc1[nH]ccc2c1[nH]c1cc(=O)ccc12 [Harmol hydrochloride monohydrate] — higher, −0.0757
- O=C(/C=C/C=C/c1ccc2c(c1)OCO2)N1CCCCC1 [Piperine] — higher, 1.588
- COc1cc(-c2ccc(=O)[nH]n2)ccc1OC(F)F [Zardaverine] — lower, −0.6963
- Nc1cc(C(Cl)=C(Cl)Cl)c(S(N)(=O)=O)cc1S(N)(=O)=O [Clorsulon] — higher, −0.1576
- NC(=O)N1c2ccccc2C=Cc2ccccc21 [Carbamazepine] — higher, 0.2892
- COc1ccc2c3c([nH]c2c1)C(C)=NCC3.Cl.O.O [Harmaline hydrochloride dihydrate] — lower, −0.5714
- CC(C)(Oc1ccc(CCNC(=O)c2ccc(Cl)cc2)cc1)C(=O)O [Bezafibrate] — higher, −0.2571
- Cc1c(C)c2c(c(C)c1O)CCC(C)(C(=O)O)O2 (stereo not drawn) [Trolox] — lower, −1.1986
- CC(C)c1c(CN(C)C(C)Cc2ccccc2)n(C)n(-c2ccccc2)c1=O (stereo not drawn) [Famprofazone] — higher, 0.6911
- C=C(NC(=O)C(=C)NC(=O)c1csc(C2=N[C@@H]3c4csc(n4)[C@H]4NC(=O)c5csc(n5)[C@H]([C@](C)(O)[C@@H](C)O)NC(=O)[C@H]5CSC(=N5)/C(=C/C)NC(=O)[C@H]([C@@H](C)O)NC(=O)c5csc(n5)[C@]3(CC2)NC(=O)[C@H](C)NC(=O)C(=C)NC(=O)[C@H](C)NC(=O)[C@H]([C@@H](C)CC)N[C@@H]2C=Cc3c([C@H](C)O)cc(nc3[C@H]2O)C(=O)O[C@@H]4C)n1)C(N)=O [Thiostrepton] — higher, 13.9158
- CCN(CC)C(=O)N[C@H]1C=C2c3cccc4[nH]cc(c34)C[C@H]2N(C)C1 [Lisuride (S)(−)] — lower, −0.7927
- CO[C@H]1C[C@H](O[C@H]2[C@H](C)[C@@H](O[C@@H]3O[C@H](C)C[C@H](N(C)C)[C@H]3OC(C)=O)[C@@H](C)C[C@@]3(CO3)C(=O)[C@H](C)[C@@H](OC(C)=O)[C@@H](C)[C@@H](C)OC(=O)[C@@H]2C)O[C@@H](C)[C@@H]1OC(C)=O [Troleandomycin] — lower, −0.5429
- C[C@H](CCC(=O)O)[C@H]1CC[C@H]2[C@@H]3C(=O)C[C@@H]4CC(=O)CC[C@]4(C)[C@H]3CC(=O)[C@]12C [Dehydrocholic acid] — lower, −1.006
- CN(C)CCCN1c2ccccc2Sc2ccc(C(F)(F)F)cc21 [Triflupromazine hydrochloride] — higher, 0.04449
- CCOC(=O)c1cncn1[C@H](C)c1ccccc1 [Etomidate] — higher, 0.2274
- CCCCNc1c(C(=O)OCC)c(C)nc2c1cnn2CC [Tracazolate hydrochloride] — lower, −1.6368
- CC(=O)Nc1nnc(S(N)(=O)=O)s1 [Acetazolamide] — higher, 0.8773
- COc1ccc2c(c1)c(CC(=O)OCC(=O)O)c(C)n2C(=O)c1ccc(Cl)cc1 [Acemetacin] — lower, −0.9005
- CN1C[C@H](CNC(=O)OCc2ccccc2)C[C@@H]2c3cccc4c3c(cn4C)C[C@H]21 [Metergoline] — higher, 0.5474
- Merbromin — higher, 0.2933
- CC[N+](CC)(CC)CCOc1cccc(OCC[N+](CC)(CC)CC)c1OCC[N+](CC)(CC)CC [Gallamine triethiodide] — higher, 0.8644
- COc1ccc2c(c1)c(CC(=O)O)c(C)n2C(=O)c1ccc(Cl)cc1 [Indomethacin] — lower, −0.7862
- O=C1c2ccccc2C(=O)C1c1ccccc1 [Phenindione] — higher, 0.2654
- Oc1ccc(OCc2ccccc2)cc1 [Monobenzone] — lower, −1.7289
- CO/N=C(\C(=O)N[C@@H]1C(=O)N2C(C(=O)O)=C(COC(C)=O)CS[C@H]12)c1csc(N)n1 [Cefotaxime sodium salt] — lower, −0.8289
- Nc1c2c(nc3ccccc13)CCCC2O.O=C(O)/C=C\C(=O)O (racemic) [Hydroxytacrine maleate (R,S)] — lower, −0.525
- C[C@H]1C[C@H]2[C@@H]3CCC4=CC(=O)C=C[C@]4(C)[C@@]3(F)[C@@H](O)C[C@]2(C)[C@@]1(O)C(=O)CO [Betamethasone] — higher, −0.1891
- O=C(CCCN1CC=C(n2c(=O)[nH]c3ccccc32)CC1)c1ccc(F)cc1 [Droperidol] — lower, −0.5996
- c1ccc([C@H]2CN3CCSC3=N2)cc1 [Levamisole hydrochloride] — lower, −0.8539
- CCN(CC)CCOC(=O)C(c1ccccc1)C1CCCCC1 (stereo not drawn) [Drofenine hydrochloride] — higher, −0.0455
- CC[C@H]1[C@@H]2C[C@H]3[C@@H]4N(C)c5ccccc5[C@]45C[C@@H]([C@H]2[C@H]5O)N3[C@@H]1O [Ajmaline] — lower, −0.937
- CC1=CC(=O)C2=C(C)C[C@H](O)[C@@H]3[C@H](OC(=O)[C@H]3C)[C@H]12 [Austricine] — lower, −0.5795
- CC(C(=O)O)c1cccc(Oc2ccccc2)c1 (stereo not drawn) [Fenoprofen calcium salt dihydrate] — lower, −0.4668
- CC[C@H]1OC(=O)[C@H](C)[C@@H](O[C@H]2C[C@@](C)(OC)[C@@H](O)[C@H](C)O2)[C@H](C)[C@@H](O[C@@H]2O[C@H](C)C[C@H](N(C)C)[C@H]2O)[C@](C)(O)C[C@@H](C)/C(=N\OCOCCOC)[C@H](C)[C@@H](O)[C@]1(C)O [Roxithromycin] — lower, −1.026
- COCCCC/C(=N\OCCN)c1ccc(C(F)(F)F)cc1 [Fluvoxamine maleate] — lower, −1.2293
- Nc1nc(O)c2[nH]nnc2n1 [Azaguanine-8] — higher, 2.948
- CCN1CCN(C(=O)N[C@@H](C(=O)N[C@@H]2C(=O)N3C(C(=O)O)=C(CSc4nnnn4C)CS[C@H]23)c2ccc(O)cc2)C(=O)C1=O [Cefoperazone dihydrate] — higher, 0.4847
- CN1[C@@H]2C[C@@H](OC(=O)[C@H](CO)c3ccccc3)C[C@H]1[C@@H]1O[C@@H]12 [Scopolamine hydrochloride] — higher, 0.9672
- COc1ccc2c(c1OC)C(=O)O[C@@H]2[C@H]1c2cc3c(cc2CCN1C)OCO3 [Hydrastine hydrochloride] — higher, −0.3277
- C#C[C@]1(O)CC[C@H]2[C@@H]3CCC4=CCCC[C@@H]4[C@H]3CC[C@@]21C [Lynestrenol] — lower, −1.3181
- COC(=O)C1=C(C)NC(C)=C(C(=O)OC(C)C)C1c1cccc2nonc12 (stereo not drawn) [Isradipine] — higher, 0.2737
- O=c1cc(-c2ccc(O)c(O)c2)oc2cc(O)cc(O)c12 [Luteolin] — lower, −1.0098
- NC[C@H]1O[C@H](O[C@H]2[C@H](O[C@@H]3O[C@H](CO)[C@@H](O)[C@H]3O)[C@@H](O)[C@H](N)C[C@@H]2N)[C@H](N)[C@@H](O)[C@@H]1O [Ribostamycin sulfate salt] — lower, −0.4737
- Cc1cc2cc3c(C)cc(=O)oc3c(C)c2o1 [Trioxsalen] — higher, 1.359
- CO[C@@H]1C=C2CCN(C)[C@@H]2C2c3cc4c(cc3C(=O)OC21)OCO4.O=[N+]([O-])O (stereo partly drawn) [Ungerine nitrate] — lower, −1.1174
- O=C(O)[C@]1(O)C[C@@H](O)[C@@H](O)[C@H](O)C1 [Quinic acid] — higher, 1.0976
- CCCC(=O)Nc1ncnc2c1ncn2[C@@H]1O[C@@H]2COP(=O)(O)O[C@H]2[C@H]1OC(=O)CCC [Bucladesine sodium salt] — lower, −0.9927
- Clc1ccc(C(Cn2ccnc2)OCc2c(Cl)cccc2Cl)c(Cl)c1 (stereo not drawn) [Isoconazole] — lower, −1.2562
- C[C@]12CCC(=O)C=C1CC[C@@H]1[C@@H]2C(=O)C[C@@]2(C)[C@H]1CC[C@]2(O)C(=O)CO [Cortisone] — lower, −1.8033
- Clc1ccc(COC(Cn2ccnc2)c2ccc(Cl)cc2Cl)cc1 (stereo not drawn) [Econazole nitrate] — lower, −0.8488
- Cc1cc(NS(=O)(=O)c2ccc(N)cc2)no1 [Sulfamethoxazole] — lower, −0.4061
- [H]/N=C(\N/C(=N/[H])NCCCCCCNC(=N)NC(=N)Nc1ccc(Cl)cc1)Nc1ccc(Cl)cc1 [Chlorhexidine] — higher, 24.4911
- CNCCCN1c2ccccc2CCc2ccccc21 [Desipramine hydrochloride] — higher, 0.2168
- COc1ccccc1OCC(O)COC(N)=O (stereo not drawn) [Methocarbamol] — lower, −1.1429
- CN1CCN(C2=Nc3ccccc3Oc3ccc(Cl)cc32)CC1 [Loxapine succinate] — lower, −0.6976
- Tropicamide — higher, 0.5083
- COC(=O)[C@H]1[C@H]2C[C@H]3c4[nH]c5ccccc5c4CCN3C[C@H]2CC[C@@H]1O [Rauwolscine hydrochloride] — lower, −0.7161
- C#C[C@]1(O)CC[C@H]2[C@@H]3CCC4=CC(=O)CC[C@@H]4[C@H]3CC[C@@]21CC [Norgestrel-(−)-D] — higher, 1.412
- C=C1CC[C@H](O)C/C1=C/C=C1\CCC[C@]2(C)[C@@H]([C@H](C)CCCC(C)C)CC[C@@H]12 [Cholecalciferol] — higher, 0.4701
- OCCN(CCO)c1nc(N2CCCCC2)c2nc(N(CCO)CCO)nc(N3CCCCC3)c2n1 [Dipyridamole] — higher, 0.4282
- O=C(O)c1cn(C2CC2)c2cc(N3CCNCC3)c(F)cc2c1=O [Ciprofloxacin hydrochloride] — lower, −1.3212
- O=C(O)c1cc(=O)c2c(OCC(O)COc3cccc4oc(C(=O)O)cc(=O)c34)cccc2o1 [Cromolyn disodium salt] — lower, −1.7273
- COc1ccc(C(=O)NCc2cccnc2)cc1C(=O)NCc1cccnc1 [Picotamide monohydrate] — lower, −1.2123
- Fc1ccc(C(OCCN2CCN(CCCc3ccccc3)CC2)c2ccc(F)cc2)cc1 [GBR 12909 dihydrochloride] — lower, −1.0102
